Data taken from US20180092920A1, “METHOD FOR TREATING TAU PROTEIN-MEDIATED DEGENERATIVE NEURONAL DISEASE” (SEOUL NATIONAL UNIVERSITY R&DB FOUNDATION, priority 2012, published 2018).

Assays:
[1] = test system: tau protein phosphorylation; assay: Western blot of tau phosphorylation (PHF-1, Tau-1 antibodies) in HT22 cells cotransfected with pmALK and pGFP-tau; format: cell-based, mouse; settings: pmALK + pGFP-tau, emodin treatment
Method: Subsequently, the present inventor examined aggregation and phosphorylation of tau caused by coexpression of mouse tau and mouse ALK as observed in Experimental Example 1-1 through treatment of an inhibitor of ERK activation and PHF aggregation. Specifically, HT22 cells were cotransfected with pmALK and pGFP-tau constructs, and condensation of cells depending whether emodin was treated or not was counted, wherein emodin is an inhibitor of ERK activation and PHF aggregation. Then, the cells were extracted to examine a phosphorylation level of tau protein by using PHF-1 antibody and Tau-1 antibody.

[2] = test system: tau aggregation caused by ALK in HT22 cells; settings: emodin, inhibitor of PHF aggregation; given with literature references; cited from earlier work
[3] = test system: tau aggregation caused by ALK in HT22 cells; assay: Tau aggregation in HT22 cells cotransfected with pmALK and pGFP-tau, counted by fluorescence microscopy; format: cell-based, mouse; settings: pmALK + pGFP-tau, emodin treatment
Method: To examine whether mouse ALK increases aggregation and phosphorylation of tau, a pGFP-tau-based functional screening method of which availability was validated in the Experiment Example 1 was used. […] The transfection was performed while amounts of cotransfected pcDNA, pGSK3β CA, and pmALK constructs were increased to 100, 200, and 400 ng. After 24 hours of transfection, aggregation of tau was examined as the number of GFP-positive cells appeared to be aggregated by using a fluorescence microscopy. After then, the cells were extracted to examine phosphorylation of tau by analyzing PHF-1 protein expression with western blot. Subsequently, the present inventor examined aggregation and phosphorylation of tau caused by coexpression of mouse tau and mouse ALK as observed in Experimental Example 1-1 through treatment of an inhibitor of ERK activation and PHF aggregation. Specifically, HT22 cells were cotransfected with pmALK and pGFP-tau constructs, and condensation of cells depending whether emodin was treated or not was counted, wherein emodin is an inhibitor of ERK activation and PHF aggregation. Then, the cells were extracted to examine a phosphorylation level of tau protein by using PHF-1 antibody and Tau-1 antibody.

TauC3 AD model mice = assay: Memory tests (Y-MAZE, novel object recognition, passive avoidance) in TauC3 AD model mice; format: in vivo, mouse; settings: TauC3 mice one-month-old, icv injection 9 pg, after 17 days
Method: TauC3 mice, which were produced by the present inventor, are a tau Alzheimer's mouse model showing early memory defect by expressing tauC3 in a mouse brain, wherein the tauC3 has C-terminal of which 20 amino acids were eliminated by caspase-3 (see Korean Patent No. 1213325). […] After 17 days, memory was measured and compared by Y-MAZE (FIGS. 14A and 14B), novel object recognition (FIG. 14C) and passive avoidance test (FIG. 14D). Consequently, as shown in FIGS. 14A to 14D, memory of mock (a control) in TauC3 TG mice was remarkably declined while memory decline of the ALK inhibitor treating group was suppressed in all three types of behavior tests.

[4] = test system: tau phosphorylation and signaling proteins in brain; assay: Western blot of brain tissue (hippocampus) of TauC3 mice after the behavior tests; format: in vivo, mouse
[5] = test system: ALK-mediated tau phosphorylation; settings: for ALK-mediated tau phosphorylation: HT22 cells, pGFP-tau + pALK.Fc, 24 hours, dependent on treating amount
Method: In addition, examined was influence of a tau kinase specific inhibitor on ALK-induced tau phosphorylation. […] Thereafter, western bolt was performed using the cell extract. The used antibodies are as follow: PHF-1 (p-Ser396/404; Davies), CP13 (p-S202; Davies), MC-1 (conformational change; Davies), P35/25 (Cell signaling, #2680), TG5 (220-240; generously provided by Dr. Peter Davies, Albert Einstein College of Medicine, NY), -actin (Sigma, A2668), ERK (Cell signaling, #9102), p-ERK (Cell signaling, #9101), GSK3β (BD Biosciences, 610201), and p-GSK3β (p-Ser9; Cell signaling, #9323).

HT22 cells = settings: 25 iM roscovitine, 1 μM U0126, 24 hours
Method: Examined was a cell death level of neuronal cells containing a lot of aggregated and hyperphosphorylated tau due to ALK. HT22 cells were cotransfected with pALK.Fc or pALK.Fc KD construct and pGFP or pGFP-tau construct, and cultured for 24 to 96 hours. Cell death was measured by staining cells with ethidium homodimer (EtHD) and then counting GFP-positive cells indicating condensed and fragmented nuclei.
To examine downstream kinase of ALK-mediated tau neurotoxicity, the present inventor used a kinase inhibitor. HT22 cells were cotransfected with pALK.Fc and pGFP-tau constructs, and then treated with mock (Mock), 25 iM roscovitine (Ros), 1 μM U0126 (U0126), or 10 mM LiCl for 24 hours. Thereafter, cell death was measured. For negative control, used was mock group in which none of a material was treated.

[6] = test system: HT22/Tau #1 transformed cell line; assay: Neurite growth and cell viability in HT22/Tau #1 cells by fluorescence microscopy; format: cell-based, mouse; settings: 25 μM pretreatment, 24 hours, neuronal cells expressing tau and ALK.Fc
Method: A HT22/Tau #1 transformed cell line was cotransfected with pGFP and pcDNA or pALK after pretreated with 25 μM of roscovitine. Thereafter, the resultant was cultured for 24 hours with/without doxycycline (Dox) treatment. Neurite growth and cell viability were measured through a fluorescence microscopy. Relative ratio of neurites was measured by the number of neuronal cells verses the length of neurites. Consequently, the reduction in neurite growth and the increase in cell death by ALK and tau in neuronal cells expressing tau and ALK.Fc were recovered through the CDK5 inhibitor, roscovitine, treatment (FIG. 9B).

HT22/Tau #1 cells = assay: Cell death of HT22/Tau #1 cells transfected with ALK.Fc and treated with ALK inhibitor (fluorescence microscopy, cell morphology); format: cell-based, mouse; settings: 20 nM, 24 hours; decreased from 42% without inhibitor
Method: Then, cell death was determined through a fluorescence microscopy based on cell morphology. Thereafter, cells were extracted and phosphorylation of tau, ERK, CDK5 and ALK was measured through western blot using respective antibodies. The error bar of the graph indicates mean±S.D. (n=4).

CDK5 = target: T1, CDK5 (Mus musculus, UniProt P49615); assay: ALK/Tau cell death in HT22 cells with CDK5 shRNA (LIVE/DEAD Viability/Cytotoxicity kit); format: cell-based; settings: pGFP-tau + pALK.Fc + shRNA, 48 hours after transfection
T1 construct: endogenous in cells; host or cells: HT22 cells cotransfected with pGFP-tau, pALK.Fc and pCDK5 shRNA #1 or #2
T1 sequence (P49615 whole entry): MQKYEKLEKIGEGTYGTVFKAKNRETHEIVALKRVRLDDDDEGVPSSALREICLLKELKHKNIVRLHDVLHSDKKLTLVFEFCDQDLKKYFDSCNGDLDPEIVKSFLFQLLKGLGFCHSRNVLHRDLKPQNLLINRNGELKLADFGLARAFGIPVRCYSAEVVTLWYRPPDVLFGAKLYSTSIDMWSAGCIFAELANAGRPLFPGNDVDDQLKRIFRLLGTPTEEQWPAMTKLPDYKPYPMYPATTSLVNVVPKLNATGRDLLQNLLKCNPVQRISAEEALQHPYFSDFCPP
Method: Moreover, the present inventor observed neurotoxicity of ALK/Tau by using CDK5 shRNA. HT22 cells cotransfected with pGFP-tau and pALK.Fc constructs together with either pCDK5 shRNA #1 or #2. After 48 hours of the transfection, cell death was measured by using LIVE/DEAD Viability/Cytotoxicity kit (Molecular Probes). As the same as above experimental results, it was observed that cell death induced by ALK/Tau was reduced when endogenous CDK5 expression was inhibited using shRNA (FIG. 8D). The used pCDK5 shRNA #1 was characterized by having a polynucleotide having the nucleotide sequence of SEQ ID No. 1 (5′-[…]-3′), and pCDK5 shRNA #2 was characterized by having a polynucleotide having the nucleotide sequence of SEQ ID No. 2 (5′-[…]-3′). […] The results shown in FIGS. 8A to 8D were mean±S.D obtained by triplicate experiments.

Compound: Cc1cc(O)c2c(c1)C(=O)c1cc(O)cc(O)c1C2=O [emodin]
- PHF-1 expression (phosphorylated tau) [1]: decreasing
- tau-1 expression (unphosphorylated tau) [1]: increased
- IC50 [2]: 1000 to 5000 nM
- tau aggregation caused by ALK [3]: inhibited

Compound: C[C@@H](Oc1cc(-c2cnn(C3CCNCC3)c2)cnc1N)c1c(Cl)ccc(F)c1Cl [PF-2341066]
- memory decline in all three types of behavior tests (TauC3 AD model mice): suppressed
- ERK1/2 activity in brain ([4]; TauC3 mouse brain): reduced
- phosphorylation of tau in brain (PHF1, pT231, CP13, 12E8) ([4]; TauC3 mouse brain (hippocampus)): significantly inhibited

Compound: CC[C@H](CO)Nc1nc(NCc2ccccc2)c2ncn(C(C)C)c2n1 [roscovitine]
- ALK-mediated tau phosphorylation [5]: significantly reduced
- ALK.Fc/Tau-mediated neurotoxicity (cell death) (HT22 cells): significantly reduced
- increase in cell death by ALK and tau [6]: recovered
- reduction in neurite growth by ALK and tau [6]: recovered

Compound: N#CC(=C(/N)Sc1ccccc1N)/C(C#N)=C(\N)Sc1ccccc1N [U0126]
- ALK-mediated tau phosphorylation [5]: significantly reduced
- ALK.Fc/Tau-mediated neurotoxicity (cell death) (HT22 cells): partially reduced

Compound: COc1cc(N2CCC(N3CCN(C)CC3)CC2)ccc1Nc1ncc(Cl)c(Nc2ccccc2S(=O)(=O)C(C)C)n1 [NVP-TAE684]
- cell death (HT22/Tau #1 cells): 10%

Compound: pCDK5 shRNA #1: CDK5 shRNA having the nucleotide sequence of SEQ ID No. 1 (5′-TGACCAAGCTGCCAGACTA-3′)
- cell death induced by ALK/Tau (CDK5): reduced

Compound: pCDK5 shRNA #2: CDK5 shRNA having the nucleotide sequence of SEQ ID No. 2 (5′-ACTCCACGTCCATCGACAT-3′)
- cell death induced by ALK/Tau (CDK5): reduced

Compound: [Cl-].[Li+] [LiCl]
- tau phosphorylation ([5]; both cells expressing pGFP-tau alone and coexpressing pGFP-tau and pALK.Fc, inhibition levels very similar): inhibited
